From patent publication US11427558B1, “Indazoles and azaindazoles as LRRK2 inhibitors” (ESCAPE Bio, Inc., priority 2019, dated 2022)

What was measured:
[1] = target: Recombinant G2019S-LRRK2 protein (Homo sapiens (Human), UniProt Q5S007, G2019S); experiment: LRRK2 kinase activity, LanthaScreen TR-FRET assay (G2019S); type: biochemical; settings: LRRKtide 400 nM, 25 μM ATP, 60 min
Procedure, shortened: (§1)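 Recombinant human wild-type or G2019S LRRK2 phosphorylated fluorescein-labelled LRRKtide (ERM-based) with ATP and serially diluted compound for 60 min at room temperature.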

[2] = target: Recombinant wild type LRRK2 protein (Homo sapiens (Human), UniProt Q5S007); experiment: LRRK2 kinase activity, LanthaScreen TR-FRET assay (wild type); type: biochemical; settings: LRRKtide 400 nM, 25 μM ATP, 60 min; read-out: LRRK2 WT IC50
Procedure, shortened: as §1

Recombinant G2019S-LRRK2 protein, sequence (Q5S007 whole entry G2019S): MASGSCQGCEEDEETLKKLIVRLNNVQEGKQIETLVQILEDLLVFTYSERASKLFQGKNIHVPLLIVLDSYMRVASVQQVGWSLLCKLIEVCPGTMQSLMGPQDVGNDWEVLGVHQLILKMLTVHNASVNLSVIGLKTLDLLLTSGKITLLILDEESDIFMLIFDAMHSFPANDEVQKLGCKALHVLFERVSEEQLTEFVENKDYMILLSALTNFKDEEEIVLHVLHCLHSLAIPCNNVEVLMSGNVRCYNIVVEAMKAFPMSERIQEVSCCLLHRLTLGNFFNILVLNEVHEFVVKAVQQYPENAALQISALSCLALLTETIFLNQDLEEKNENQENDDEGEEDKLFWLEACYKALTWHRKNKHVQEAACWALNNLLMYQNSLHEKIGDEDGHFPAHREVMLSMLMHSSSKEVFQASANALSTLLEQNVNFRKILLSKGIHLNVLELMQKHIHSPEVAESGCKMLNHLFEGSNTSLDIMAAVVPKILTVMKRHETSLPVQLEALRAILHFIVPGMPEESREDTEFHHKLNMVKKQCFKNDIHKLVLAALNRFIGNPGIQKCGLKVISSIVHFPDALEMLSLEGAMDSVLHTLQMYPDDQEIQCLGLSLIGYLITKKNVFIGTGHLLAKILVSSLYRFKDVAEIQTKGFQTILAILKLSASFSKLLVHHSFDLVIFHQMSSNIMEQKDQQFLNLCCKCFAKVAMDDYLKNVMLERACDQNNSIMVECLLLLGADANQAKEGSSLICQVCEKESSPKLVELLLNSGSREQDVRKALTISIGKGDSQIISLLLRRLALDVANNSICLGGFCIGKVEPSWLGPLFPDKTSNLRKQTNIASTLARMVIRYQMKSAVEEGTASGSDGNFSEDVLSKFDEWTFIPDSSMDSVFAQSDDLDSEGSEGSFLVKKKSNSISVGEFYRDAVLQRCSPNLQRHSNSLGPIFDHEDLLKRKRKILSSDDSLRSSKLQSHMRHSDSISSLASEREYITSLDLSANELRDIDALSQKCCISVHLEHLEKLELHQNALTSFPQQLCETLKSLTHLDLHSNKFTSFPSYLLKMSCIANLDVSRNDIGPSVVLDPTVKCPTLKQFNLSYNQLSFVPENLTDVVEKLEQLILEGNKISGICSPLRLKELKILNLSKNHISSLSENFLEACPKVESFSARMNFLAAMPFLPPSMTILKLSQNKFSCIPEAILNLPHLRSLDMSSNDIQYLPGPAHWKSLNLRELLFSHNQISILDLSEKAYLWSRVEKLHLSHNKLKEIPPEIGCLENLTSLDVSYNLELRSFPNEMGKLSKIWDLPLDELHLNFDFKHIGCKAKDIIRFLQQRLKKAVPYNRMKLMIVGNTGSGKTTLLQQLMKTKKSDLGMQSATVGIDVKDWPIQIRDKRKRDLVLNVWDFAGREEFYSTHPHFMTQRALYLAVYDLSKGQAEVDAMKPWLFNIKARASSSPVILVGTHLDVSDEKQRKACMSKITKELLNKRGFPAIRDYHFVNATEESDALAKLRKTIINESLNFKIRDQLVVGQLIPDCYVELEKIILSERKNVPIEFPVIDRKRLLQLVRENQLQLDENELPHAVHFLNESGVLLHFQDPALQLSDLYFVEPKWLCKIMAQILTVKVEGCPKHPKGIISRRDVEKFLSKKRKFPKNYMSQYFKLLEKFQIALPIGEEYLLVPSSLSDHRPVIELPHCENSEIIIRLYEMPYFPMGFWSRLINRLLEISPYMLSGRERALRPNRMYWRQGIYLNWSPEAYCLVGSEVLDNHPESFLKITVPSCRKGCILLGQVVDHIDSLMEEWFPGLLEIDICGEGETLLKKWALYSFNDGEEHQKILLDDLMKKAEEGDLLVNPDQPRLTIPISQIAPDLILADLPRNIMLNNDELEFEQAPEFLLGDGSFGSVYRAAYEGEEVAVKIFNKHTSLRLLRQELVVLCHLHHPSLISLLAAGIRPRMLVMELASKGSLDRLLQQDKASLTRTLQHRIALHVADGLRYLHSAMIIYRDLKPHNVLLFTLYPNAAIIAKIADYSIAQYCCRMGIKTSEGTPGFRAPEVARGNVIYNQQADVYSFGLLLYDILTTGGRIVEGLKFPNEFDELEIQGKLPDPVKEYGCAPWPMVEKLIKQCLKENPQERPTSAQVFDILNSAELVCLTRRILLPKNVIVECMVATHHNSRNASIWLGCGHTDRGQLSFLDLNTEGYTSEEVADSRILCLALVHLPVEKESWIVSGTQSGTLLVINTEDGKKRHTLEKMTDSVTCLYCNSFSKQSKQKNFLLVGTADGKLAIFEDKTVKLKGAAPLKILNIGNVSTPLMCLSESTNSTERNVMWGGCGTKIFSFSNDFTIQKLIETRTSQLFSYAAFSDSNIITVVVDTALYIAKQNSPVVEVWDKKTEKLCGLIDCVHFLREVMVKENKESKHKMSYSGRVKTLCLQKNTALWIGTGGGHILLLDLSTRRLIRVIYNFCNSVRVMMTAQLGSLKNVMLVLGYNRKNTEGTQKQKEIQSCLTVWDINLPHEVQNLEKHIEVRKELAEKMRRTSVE
Recombinant wild type LRRK2 protein, sequence (Q5S007 whole entry): as the sequence (Q5S007 whole entry G2019S) above, with S2019G counted along it

| SMILES | IC50 [1] [nM] | IC50 [2] [nM] |
| --- | --- | --- |
| Cc1n[nH]c2ccc(NC(=O)c3ncc(C#N)cc3C(C)C)cc12 [Example 294, 5-Cyano-3-isopropyl-N-(3-methyl-1H-indazol-5-yl)picolinamide] | 100 to 1000 | 1000 to 10000 |
| Cc1n[nH]c2ccc(NC(=O)c3cccc(C#N)c3C(C)C)cc12 [Example 295, 3-Cyano-2-isopropyl-N-(3-methyl-1H-indazol-5-yl)benzamide] | < 100 | 100 to 1000 |
| Cc1c(C(=O)Nc2ccc3[nH]nc(S(C)(=O)=O)c3c2)nc(Cl)c(C#N)c1C [Example 296, 6-Chloro-5-cyano-3,4-dimethyl-N-(3-(methylsulfonyl)-1H-indazol-5-yl)picolinamide] | < 100 | 100 to 1000 |
| Cc1c(C#N)cnc(C(=O)Nc2ccc3[nH]nc(C)c3c2)c1C [Example 297, 5-Cyano-3,4-dimethyl-N-(3-methyl-1H-indazol-5-yl)picolinamide] | < 100 | 100 to 1000 |
| Cc1c(C(=O)Nc2ccc3[nH]nc(C)c3c2)nc(Cl)c(C#N)c1C [Example 298, 6-Chloro-5-cyano-3,4-dimethyl-N-(3-methyl-1H-indazol-5-yl)picolinamide] | < 100 | < 100 |
| COc1c(C#N)ccc(C)c1C(=O)Nc1ccc2[nH]nc(C)c2c1 [Example 299, 3-Cyano-2-methoxy-6-methyl-N-(3-methyl-1H-indazol-5-yl)benzamide] | < 100 | 100 to 1000 |
| Cc1c(C#N)cnc(C(=O)Nc2ccc3[nH]nc(Br)c3c2)c1C [Example 300, N-(3-Bromo-1H-indazol-5-yl)-5-cyano-3,4-dimethylpicolinamide] | < 100 | 100 to 1000 |
| Cc1c(C#N)cnc(C(=O)Nc2ccc3[nH]nc(Cl)c3c2)c1C [Example 301, N-(3-Chloro-1H-indazol-5-yl)-5-cyano-3,4-dimethylpicolinamide] | < 100 | 1000 to 10000 |
| Cc1c(C(=O)Nc2ccc3[nH]nc(C)c3c2)nc(Br)c(C#N)c1C [Example 302, 6-Bromo-5-cyano-3,4-dimethyl-N-(3-methyl-1H-indazol-5-yl)picolinamide] | < 100 | < 100 |
| Cc1c(C(=O)Nc2ccc3[nH]nc(C4CC4)c3c2)nc(Cl)c(C#N)c1C [Example 303, 6-Chloro-5-cyano-N-(3-cyclopropyl-1H-indazol-5-yl)-3,4-dimethylpicolinamide] | < 100 | < 100 |
| COc1nc(C(=O)Nc2ccc3[nH]nc(C4CC4)c3c2)c(C)c(C)c1C#N [Example 304, 5-Cyano-N-(3-cyclopropyl-1H-indazol-5-yl)-6-methoxy-3,4-dimethylpicolinamide] | < 100 | < 100 |
| Cc1nc(C(=O)Nc2ccc3[nH]nc(C4CC4)c3c2)c(C)c(C)c1C#N [Example 305, 5-Cyano-N-(3-cyclopropyl-1H-indazol-5-yl)-3,4,6-trimethylpicolinamide] | < 100 | 100 to 1000 |
| Cc1c(C(=O)Nc2ccc3[nH]nc(C)c3c2)ncc(C#N)c1Cl [Example 306, 4-Chloro-5-cyano-3-methyl-N-(3-methyl-1H-indazol-5-yl)picolinamide] | < 100 | 100 to 1000 |
| Cc1cc(C#N)c(Cl)nc1C(=O)Nc1ccc2[nH]nc(C)c2c1 [Example 307, 6-Chloro-5-cyano-3-methyl-N-(3-methyl-1H-indazol-5-yl)picolinamide] | < 100 | 100 to 1000 |
| COc1n[nH]c2ccc(NC(=O)c3nc(Cl)c(C#N)c(C)c3C)cc12 [Example 308, 6-Chloro-5-cyano-N-(3-methoxy-1H-indazol-5-yl)-3,4-dimethylpicolinamide] | < 100 | < 100 |
| N#Cc1cnc(C(=O)Nc2ccc3[nH]nc(-c4cnoc4)c3c2)c(Cl)c1 [Example 309, 3-Chloro-5-cyano-N-(3-(isoxazol-4-yl)-1H-indazol-5-yl)picolinamide] | < 100 | < 100 |
